How the values were obtained:
SCs = experiment: Cell viability assay (cell counting kit-8) of senescent and non-senescent SCs treated with inhibitors; type: cell-based, mouse
Protocol: Figure 3 25HC is a senolytic in multiple muscle cell types (A) Targets, compounds, and mechanisms. (B) Timeline of cell viability assay with inhibitors. Cells were pre-cultured for 24 h, treated with Doxo for 24 h, and then treated with inhibitors. Cell viability was analyzed from day 0–7. (C–E) Effects of inhibitors on viability of FAPs, SCs, and HSMMs. Cells were treated with inhibitors at the indicated concentrations. Cell viability was analyzed on day 3 (HSMMs) or 5 (FAPs and SCs). Blue and red dots indicate non-senescent (NS) and senescent (SEN), respectively. The average value at 0 μM for each group was set at 100% cell viability. p values versus NS were obtained using unpaired two-tailed Student’s t test. ∗p < 0.05, ∗∗p < 0.01, and ∗∗∗p < 0.001.
Figure 4 EC50 fitted curves (triplicates) of inhibitor effects at 3 and 7 days in FAPS and SCs EC50 was defined as the concentration of inhibitors that provokes a response halfway between baseline and maximum senolytic activity. EC50 values were determined by four- parameter logistic modeling using GraphPad Prism 8.0.
Hind limb muscles were digested in DMEM containing 0.5% (w/v) collagenase type II (Worthington) for 90 min at 37 °C with trituration and passed through a 40-μm nylon mesh. Erythrocytes were eliminated by treating with BD Pharm Lyse (BD Biosciences). Cells were resuspended in a washing buffer of PBS with 2% FBS and stained with antibodies for 30 min at 4 °C as described ([Kamizaki et al., 2017]). FAPs and SCs were isolated from the suspension by FACS (Aria II, BD Biosciences) using anti-CD31, CD45, Sca-1, PDGFR and VCAM1 antibodies. FAPs were identified as Sca1/PDGFR-positive and CD31-, CD45- and VCAM1-negative cells ([Uezumi et al., 2010]). SCs were identified as VCAM1-positive and CD31-, CD45-, Sca-1 and PDGFR-negative cells ([Liu et al., 2015]).
(§1) All experiments were performed in incubators at 37 °C, 3% O2 and 5% CO2. Senescence was induced by treatment with either Doxo (250 nM for 24 h) ([Demaria et al., 2017]) or X-irradiation (10 Gy) ([Limbad et al., 2020]). For cell culture studies using 25HC, it was used at the indicated concentrations in the media.
FAPs and SCs were cultured on Matrigel-coated dishes (BD Biosciences) in growth medium (GM) consisting of DMEM plus 10% FBS, 1% penicillin-streptomycin and 10% MyoCult (STEMCELL Technologies) for 7 days. Human myogenic cell HSMMs (Lonza) were maintained according to the manufacturer’s instructions with SkGM-2 medium (Lonza).
(§2) Cell viability was assessed using a cell counting kit-8 from Dojindo Molecular Technologies, Inc (Cat CK04-20). Cells were incubated with culture media + 10% kit cell viability reagent, 150 μL/well in 96-well plates for 2 h. The supernatant was transferred to a new 96-well plate and absorbance read at 450 nm as recommended in the product datasheet.

[1] = system: mouse dermal fibroblasts (mDFs); experiment: Cell viability assay of NS and SEN mouse dermal fibroblasts treated with CRYAB and HMOX1 inhibitors; type: cell-based; details: 250 nM Doxo-induced senescence; after 72 h of treatment; 25HC at five or 10 μM
Protocol: The average value of DMSO was set at 1. (B and D) Effects of CRYAB and HMOX1 inhibitors on DMSO-treated NS or Doxo-treated SEN cells; (B) mDFs, (D) IMR-90s. Cells were treated with the inhibitors at the indicated concentrations. Cell viability was measured after 72 h. (C) IMR-90 qRT-PCR. For qPCR: mean +/- SE, n =4, ∗p< 0.05, ∗∗p< 0.01, ∗∗∗p<0.001, ∗∗∗∗p<0.0001 by Dunnett’s multiple comparisons test vs DMSO. For cell viability assays: mean +/- SE, n =3, ∗∗p< 0.01, ∗∗∗p<0.001, ∗∗∗∗p<0.0001 vs 0 mM by student’s t test.
For skin sample collection, mice were euthanized, hair removed from dorsal skin and the area cleaned with alcohol. A small 1 cm x 1 cm region of skin was removed, and subcutaneous fat removed by scalpel. Skin was digested in 2–3 ml of 0.25% trypsin at 37 °C for 1 h. Hair and epidermis were further removed, and the dermis was minced into 2–3 mm pieces. Digestion of the sample in 5 ml of 1 mg/ml collagenase (Sigma, Cat#C5138) in HBSS (with Ca^++ and Mg^++) (Gibco, cat#24020117) was carried out at 37 °C on a shaker for 1 h. Collagenase digestion was stopped by addition of 10 ml 10% FBS DMEM. Filtration of the homogenate through a 70-micron mesh was performed to remove undigested tissue. Differential centrifugation and washing were performed at 1200 rpm for 5 min, and the pellet was resuspended in 10% FBS DMEM then seeded in a six-well plate. Media were changed at 5 days after seeding and then every 3 days.
as §1, §2

Compound: C[C@H](CCCC(C)(C)O)[C@H]1CC[C@H]2[C@@H]3CC=C4C[C@@H](O)CC[C@]4(C)[C@H]3CC[C@]12C [25HC, 25-hydroxycholesterol]
- viability of senescent versus non-senescent SCs (SCs; Doxo-induced senescence, viability on day 5): decreased the viability of senescent SCs
- IC50 (SCs; Mus musculus, 168 h, SCs, 7 days in culture): 3.7 µM
- senolysis in mDF cells [1]: induced significant senolysis
